Activity calls are given as the source filed them. No cut-off for these calls is given here.
Tests used:
Escherichia coli [1] = experiment: Antibacterial activity against Escherichia coli ATCC 8793 at 70 ug/ml after 24 hr by paper disk diffusion method; format: functional; settings: ATCC 8793, 24 h, read-out: DIZ
Fusarium oxysporum [2] = experiment: Fungicidal activity against Fusarium oxysporum MTCC 2087; format: functional, organism-based
Aspergillus niger [3] = experiment: Fungicidal activity against Aspergillus niger MTCC 3323; format: functional, organism-based
Candida albicans [4] = experiment: Fungicidal activity against Candida albicans MTCC 227; format: functional, organism-based
Bacillus subtilis [5] = experiment: Bactericidal against Bacillus subtilis ATCC 6633; format: functional, organism-based
Staphylococcus aureus [6] = experiment: Antibacterial activity against Staphylococcus aureus ATCC 25923 at 50 ug/ml after 24 hr by paper disk diffusion method; format: functional; settings: ATCC 25923, 24 h, read-out: DIZ
Staphylococcus aureus [7] = experiment: Antibacterial activity against Staphylococcus aureus ATCC 25923 at 70 ug/ml after 24 hr by paper disk diffusion method; format: functional; settings: ATCC 25923, 24 h, read-out: DIZ
Pseudomonas aeruginosa [8] = experiment: Antibacterial activity against Pseudomonas aeruginosa ATCC 27853 at 30 ug/ml after 24 hr by paper disk diffusion method; format: functional; settings: ATCC 27853, 24 h, read-out: DIZ
Pseudomonas aeruginosa [9] = experiment: Antibacterial activity against Pseudomonas aeruginosa ATCC 27853 at 50 ug/ml after 24 hr by paper disk diffusion method; format: functional; settings: ATCC 27853, 24 h, read-out: DIZ
Pseudomonas aeruginosa [10] = experiment: Antibacterial activity against Pseudomonas aeruginosa ATCC 27853 at 70 ug/ml after 24 hr by paper disk diffusion method; format: functional; settings: ATCC 27853, 24 h, read-out: DIZ
Escherichia coli [11] = experiment: Antibacterial activity against Escherichia coli ATCC 8793 at 30 ug/ml after 24 hr by paper disk diffusion method; format: functional; settings: ATCC 8793, 24 h, read-out: DIZ
Escherichia coli [12] = experiment: Antibacterial activity against Escherichia coli ATCC 8793 at 50 ug/ml after 24 hr by paper disk diffusion method; format: functional; settings: ATCC 8793, 24 h, read-out: DIZ
Staphylococcus aureus [13] = experiment: Bactericidal activity against Staphylococcus aureus ATCC 25923; format: functional, organism-based
Pseudomonas aeruginosa [14] = experiment: Bactericidal activity against Pseudomonas aeruginosa ATCC 27853; format: functional, organism-based
Escherichia coli [15] = experiment: Bactericidal activity against Escherichia coli ATCC 8793; format: functional, organism-based
Fusarium oxysporum [16] = experiment: Antifungal activity against Fusarium oxysporum MTCC 2087 at 30 ug/ml by paper disk diffusion method; format: functional; settings: read-out: DIZ
Fusarium oxysporum [17] = experiment: Antifungal activity against Fusarium oxysporum MTCC 2087 at 50 ug/ml by paper disk diffusion method; format: functional; settings: read-out: DIZ
Fusarium oxysporum [18] = experiment: Antifungal activity against Fusarium oxysporum MTCC 2087 at 70 ug/ml by paper disk diffusion method; format: functional; settings: read-out: DIZ
Aspergillus niger [19] = experiment: Antifungal activity against Aspergillus niger MTCC 3323 at 30 ug/ml by paper disk diffusion method; format: functional; settings: read-out: DIZ
Aspergillus niger [20] = experiment: Antifungal activity against Aspergillus niger MTCC 3323 at 50 ug/ml by paper disk diffusion method; format: functional; settings: read-out: DIZ
Aspergillus niger [21] = experiment: Antifungal activity against Aspergillus niger MTCC 3323 at 70 ug/ml by paper disk diffusion method; format: functional; settings: read-out: DIZ
Candida albicans [22] = experiment: Antifungal activity against Candida albicans MTCC 227 at 30 ug/ml by paper disk diffusion method; format: functional; settings: read-out: DIZ
Candida albicans [23] = experiment: Antifungal activity against Candida albicans MTCC 227 at 50 ug/ml by paper disk diffusion method; format: functional; settings: read-out: DIZ
Candida albicans [24] = experiment: Antifungal activity against Candida albicans MTCC 227 at 70 ug/ml by paper disk diffusion method; format: functional; settings: read-out: DIZ
Bacillus subtilis [25] = experiment: Antibacterial activity against Bacillus subtilis ATCC 6633 at 30 ug/ml after 24 hr by paper disk diffusion method; format: functional; settings: ATCC 6633, 24 h, read-out: DIZ
Bacillus subtilis [26] = experiment: Antibacterial activity against Bacillus subtilis ATCC 6633 at 50 ug/ml after 24 hr by paper disk diffusion method; format: functional; settings: ATCC 6633, 24 h, read-out: DIZ
Bacillus subtilis [27] = experiment: Antibacterial activity against Bacillus subtilis ATCC 6633 at 70 ug/ml after 24 hr by paper disk diffusion method; format: functional; settings: ATCC 6633, 24 h, read-out: DIZ
Staphylococcus aureus [28] = experiment: Antibacterial activity against Staphylococcus aureus ATCC 25923 at 30 ug/ml after 24 hr by paper disk diffusion method; format: functional; settings: ATCC 25923, 24 h, read-out: DIZ

Row | Structure (SMILES) | zone of inhibition at 70 µg/mL (Escherichia coli [1]) | Activity (Fusarium oxysporum [2]) | Activity (Aspergillus niger [3]) | Activity (Candida albicans [4]) | Activity (Bacillus subtilis [5]) | zone of inhibition at 50 µg/mL (Staphylococcus aureus [6]) | zone of inhibition at 70 µg/mL (Staphylococcus aureus [7]) | zone of inhibition at 30 µg/mL (Pseudomonas aeruginosa [8]) | zone of inhibition at 50 µg/mL (Pseudomonas aeruginosa [9]) | zone of inhibition at 70 µg/mL (Pseudomonas aeruginosa [10]) | zone of inhibition at 30 µg/mL (Escherichia coli [11]) | zone of inhibition at 50 µg/mL (Escherichia coli [12]) | Activity (Staphylococcus aureus [13]) | Activity (Pseudomonas aeruginosa [14]) | Activity (Escherichia coli [15]) | zone of inhibition at 30 µg/mL (Fusarium oxysporum [16]) | zone of inhibition at 50 µg/mL (Fusarium oxysporum [17]) | zone of inhibition at 70 µg/mL (Fusarium oxysporum [18]) | zone of inhibition at 30 µg/mL (Aspergillus niger [19]) | zone of inhibition at 50 µg/mL (Aspergillus niger [20]) | also measured
1 | CCN(CC)CC(=O)Nn1c(S)nnc1-c1ccc(OC)cc1 | 11.2 mm | inactive | inactive | inactive | Active | 8.33 mm | 9.36 mm | 8.26 mm | 9.56 mm | 10.8 mm | 9.2 mm | 10.1 mm | Active | Active | Active | 7.26 mm | 8.21 mm | 9.06 mm | 9.13 mm | 10.2 mm | zone of inhibition at 70 µg/mL (Aspergillus niger [21]): 11.1 mm; zone of inhibition at 30 µg/mL (Candida albicans [22]): 8.1 mm; zone of inhibition at 50 µg/mL (Candida albicans [23]): 9.13 mm; zone of inhibition at 70 µg/mL (Candida albicans [24]): 10.4 mm; zone of inhibition at 30 µg/mL (Bacillus subtilis [25]): 7.23 mm; zone of inhibition at 50 µg/mL (Bacillus subtilis [26]): 8.53 mm; zone of inhibition at 70 µg/mL (Bacillus subtilis [27]): 9.03 mm; zone of inhibition at 30 µg/mL (Staphylococcus aureus [28]): 7.63 mm
2 | CCCCN(CCCC)CC(=O)Nn1c(S)nnc1-c1ccc(OC)cc1 | 17.3 mm | Active | Active | Active | Active | 15.2 mm | 17.2 mm | 15.1 mm | 16.2 mm | 18.2 mm | 13 mm | 15.1 mm | Active | Active | Active | 13.1 mm | 14.3 mm | 16.2 mm | 18.1 mm | 20.1 mm | zone of inhibition at 70 µg/mL (Aspergillus niger [21]): 22.4 mm; zone of inhibition at 30 µg/mL (Candida albicans [22]): 16.1 mm; zone of inhibition at 50 µg/mL (Candida albicans [23]): 18.3 mm; zone of inhibition at 70 µg/mL (Candida albicans [24]): 20.4 mm; zone of inhibition at 30 µg/mL (Bacillus subtilis [25]): 11.2 mm; zone of inhibition at 50 µg/mL (Bacillus subtilis [26]): 13 mm; zone of inhibition at 70 µg/mL (Bacillus subtilis [27]): 15.2 mm; zone of inhibition at 30 µg/mL (Staphylococcus aureus [28]): 13.1 mm
